Legend:
[1] = tested on: carrageenan-induced edema; assay: Test Example 4: inhibitory effect on carrageenan-induced edema, various acid anti-inflammatory agents (Table 5); type: in vivo, Wister male rats; details: dose 4 mg/kg, single agent
Method: (§1) The measurement of the volume was carried out according to the method of Fujimura et al. (see Iyakuhin Kaihatsu Kisokoza, Vol. 6, "Yakubutsu no Hyoka (1)" editted by Tsuda and Nogami, p 239-282, Kabushiki Kaisha Chizin-sha, 1971).
(§2) The rate of inhibition (%) of the edema of the foot pad of each rat was calculated according to the following formula (III). [formula] MCEV: Average swollen rate of the foot pad 4 hours after the administration of carrageenan in the control group
(§3) MTEV: Average swollen rate of the foot pad 4 hours after the administration of carrageenan in the drug-given group [formula] CEV: Volume of foot pad of each rat before the administration of carrageenan
(§4) TEV: Volume of foot pad of each rat 4 hours after the administration of carrageenan
(§5) With respect to each agent, the evaluation of the inhibitory effect on edema was carried out according to the following criteria: Synergistic effect was observed:
(§6) Very great HA % + DG % ≤ ED %
(§7) Great TD % ≤ ED % < HA % + DG %
(§8) Small MD % < ED % < TD %
(§9) No synergistic effect was observed:
(§10) HA % : Inhibitory rate by the administration of sodium hyaluronate alone
(§11) DG % : Inhibitory rate by the administration of the anti-inflammatory agent alone
(§12) ED % : Inhibitory rate by the administration of the combined agent
(§13) MD % : {The greater one between HA % and DG %} × 1.2
(§14) TD % : HA % + DG % (1--HA %/100)
The inhibitory effect on carrageenan-induced edema was investigated with respect to combined agents of sodium hyaluronate (molecular weight: 8 × 10^5) and various acid anti-inflammatory agents.
(§15) Wister male rats weighing 240 to 255 (6 weeks old) were preliminarily bred for not less than 1 week. Eight rats were used in one group. A 1% solution of each test agent shown in Table 5 was administered subcutaneously into the right foot pad of each rat. Six hours after the administration, a 1% solution of carrageenen was administered subcutaneously as an irritating agent into the right foot pad of each rat in a dose of 0.1 ml/animal. The volume of the right foot pad was measured before and 4 hours after the administration of carrageenen. Then, the inhibitory effect on edema was evaluated in the same way as in Test Example 1.

[2] = tested on: carrageenan-induced edema; assay: Test Example 1: inhibitory effect on carrageenan-induced edema, foot pad, agent 6 h before carrageenan (Table 2); type: in vivo, Wister male rats
Method: The inhibitory effect on carrageenan-induced edema was investigated as to combined agents of sodium hyaluronate (molecular weight: 8 ×10^5) and various anti-inflammatory agents.
Wister male rats weighing 240 to 260 g (6 weeks old) were preliminarily bred for not less than 1 week. Eight rats were used in one group. Each test agent shown in Table 2 was dissolved or suspended in an isotonic phosphate buffer solution (pH 7.0) to give a 1% solution or suspension (hereinafter referred to as "1% solution"). The solution was administered subcutaneously into the right foot pad of each rat. Six hours after the administration, a 1% solution of carrageenan was administered subcutaneously as an irritating agent into the right foot pad of the rat in a dose of 0.1 ml/animal. The volume of the right foot pad was measured before and 4 hours after the administration of carrageenan. The rate of edema inhibition (hereinafter referred to as "inhibitory rate") by each test agent was calculated from the obtained measurements and thus the inhibitory effect on edema was evaluated.
as §2, §3, §4, §5, §6, §7, §8, §9, §10, §11, §12, §13, §14

[3] = tested on: carrageenan-induced edema; assay: Test Example 6: prolonged inhibitory effect on carrageenan-induced edema, agent 16 h before carrageenan (Table 7); type: in vivo, Wister male rats
Method: as §1, §2, §3, §4, §5, §6, §7, §8, §9, §10, §11, §12, §13, §14
as §15, with “240 to 260 g (6 weeks” for “240 to 255 (6 weeks”, “in Table 7 was administered” for “in Table 5 was administered”, “each rat. Sixteen hours after” for “each rat. Six hours after”, “solution of carrageenan was administered” for “solution of carrageenen was administered”

[4] = tested on: movable range of joint (right knee); assay: Test Example 7: inhibition of the damage to the movable range of joint, fixed right knee (Table 8); type: in vivo, Rabbits (New Zealand White); details: articular cavity; for curative effect (in words): Table 8; for Inhibitory rate (damage to the movable range of joint): dose 3.0 mg/kg, once per three days, one month, single agent
Method: Rabbits (New Zealand White) weighing about 2 kg were preliminarily bred for not less than one week and healthy ones were selected (3 rabbits per group). The joint of right knee of each rabbit was fixed by applying a splint thereto and further completely fixed not so as to move by putting it in plaster. Then the rabbits were bred normally for one month.
During the normal breading, a 1% solution of each test agent shown in Table 8 was administered using an injection needle of gauge No. 27 into the articular cavity of each rabbit except those of the control group in a dose of 0.3 ml/kg body weight once per three days.
One day after the last administration, the splint and the plaster were removed and the movable range of the joint was measured with a protractor under anesthesia with Nembutal (trademark). The rate of inhibition of the damage to the movable range of joint with respect to each test agent was calculated from the obtained measurements and the curative effect was evaluated.
The rate of inhibition of the damage to the movable range of joint was calculated according to the following formula (IV), and the evaluation of synergistic effect was conducted under the same condition as in Test Example 1. [formula] MCJV: Average movable range of joint with respect to the rabbits of the […] group
MTJV: Average movable range of joint with respect to the rabbits of the […] group

[5] = tested on: carrageenan-induced edema; assay: Test Example 2: inhibitory effect on carrageenan-induced edema, sodium hyaluronates of different molecular weights (Table 3); type: in vivo, Wister male rats; details: dose 4.0 mg/kg
Method: as §1, §2, §3, §4
The inhibitory effect on carrageenan-induced edema was investigated as to combined agents of various grades of sodium hyaluronates having different molecular weights with diclofenac sodium.
Wister male rats weighing 230 to 265 g (6 weeks old) were preliminarily bred for not less than 1 week. Eight rats were used in one group. A 1% solution of each test agent shown in Table 3 was administered subcutaneously into the right foot pad of each rat. Six hours after the administration, a 1% solution of carrageenan was administered subcutaneously as an irritating agent into the right foot pad of the rat in a dose of 0.1 ml/animal. The volume of the right foot pad was measured before and 4 hours after the administration of carrageenan. Then the inhibitory effect on edema was evaluated in the same way as in Test Example 1.

ICR mice = assay: Test Example 5: toxicity, number of dead mice 72 hours after subcutaneous administration (Table 6); type: in vivo; details: dose 40 mg/kg s.c., 5 mice per group
Method: After preliminary breeding of mail ICR mice 5 weeks old weighing 23 to 28 g (5 mice per one group) for one week, a 1% solution of each test agent shown in Table 6 wa subcutaneously administered to the mice. The number of dead mice was counted 72 hours after the administration.
The doses of the test agent used in this test were about ten times those used in Test Example 1.
The molecular weight of sodium hyaluronate is 8 × 10^5. The
doses in Table 6 mean the amounts (mg) administered per kg body weight.
The dose values, to which the mark "+" is attached, as to the combined
agents means the amounts of antiinflammatory agent added to 40 mg/kg of
sodium hyaluronate (HA).

[6] = tested on: carrageenan-induced edema; assay: Test Example 3: inhibitory effect on carrageenan-induced edema, varied ratio of diclofenac sodium to sodium hyaluronate (Table 4); type: in vivo, Wister male rats; details: dose 4 mg/kg; HA molecular weight 8 × 10^5
Method: as §1, §2, §3, §4
The inhibitory effect on carrageenan-induced edema was investigated with respect to combined agents of sodium hyaluronate (molecular weight: 8 × 10^5) and diclofenac sodium wherein the ratio of diclofenac sodium to sodium hyaluronate varied.
Wister male rats weighing 235 to 260 g (6 weeks old) were preliminarily bred for not less than 1 week. Eight rats were used in one group. […] The volume of the right foot pad was measured before and 4 hours after the administration of carrageenen. Then, the inhibitory effect on edema was evaluated in the same way as in Test Example 1.

[7] = dose 4.0 mg/kg, s.c. foot pad, single agent, 4 h after carrageenan

C=CCOc1ccc(CC(=O)O)cc1Cl [Alclofenac]
Inhibitory rate (edema) [1]: 22.9%

CCCCC1C(=O)N(c2ccccc2)N(c2ccccc2)C1=O [Phenylbutazon, Phenylbutazone]
Inhibitory rate (edema) [2, 7]: 46.1%

COc1ccc2c(c1)c(CC(=O)O)c(C)n2C(=O)c1ccc(Cl)cc1 [Indometacin]
Inhibitory rate (edema) ([2]; dose 1.2 mg/kg, s.c. foot pad, single agent, 4 h after carrageenan): 12.9%
Inhibitory rate (edema) ([3]; dose 3.0 mg/kg): 20%

Cc1cccc(Nc2ccccc2C(=O)O)c1C [Mefenamic acid]
Inhibitory rate (edema) [1]: 34.2%

O=C(O)Cc1ccccc1Nc1c(Cl)cccc1Cl [Diclofenac sodium]
Inhibitory rate (edema) [2, 7]: 16.9%
curative effect (in words) [4]: some curative effect
Inhibitory rate (damage to the movable range of joint) [4]: 17.3%
Inhibitory rate (edema) ([3]; dose 3.0 mg/kg): 9.7%

Sodium hyaluronate [Sodium hyaluronate (HA)]
Inhibitory rate (edema) [2, 7]: 23.5%
Inhibitory rate (edema) ([5]; molecular weight of HA 28 × 10^4): -36.4%
Inhibitory rate (edema) ([5]; molecular weight of HA 58 × 10^4): 17.9%
Inhibitory rate (edema) ([5]; molecular weight of HA 80 × 10^4): 29.9%
Inhibitory rate (edema) ([5]; molecular weight of HA 210 × 10^4): 43.2%
curative effect (in words) [4]: some curative effect
Inhibitory rate (damage to the movable range of joint) [4]: 24.5%
Inhibitory rate (edema) [1]: 23.9%
Number of dead mice (ICR mice): 0
Inhibitory rate (edema) ([3]; dose 4.0 mg/kg): 30.0%
Inhibitory rate (edema) [6]: 25.9%

O=C([O-])c1ccccc1O.[Na+] [Sodium salicylate]
Inhibitory rate (edema) ([2]; rat, in vivo, sc, 50 mg/kg): 46.6%

CC(C(=O)O)c1ccc2c(c1)Cc1cccnc1O2 (stereo not drawn) [Pranoprofen]
Inhibitory rate (edema) [1]: 39.0%

Cc1ccc(C(=O)c2ccc(CC(=O)O)n2C)cc1 [Tolmetin]
Inhibitory rate (edema) [1]: 25.1%

CC(C)Cc1ccc(C(C)C(=O)O)cc1 (stereo not drawn) [Ibuprofen]
Inhibitory rate (edema) [2, 7]: 18.2%

C[C@]12C=CC(=O)C=C1CC[C@@H]1[C@@H]2[C@@H](O)C[C@@]2(C)[C@H]1CC[C@]2(O)C(=O)CO [Prednisolone]
Inhibitory rate (edema) ([2]; dose 0.5 mg/kg, s.c. foot pad, single agent, 4 h after carrageenan): 21.7%

CN1C(C(=O)Nc2ccccn2)=C(O)c2ccccc2S1(=O)=O [Piroxicam]
Inhibitory rate (edema) [2, 7]: 34.6%

CC(=O)Oc1ccccc1C(=O)O [Aspirin]
Inhibitory rate (edema) [1]: 14.6%

Reference: patent US5095037A, “Combined anti-inflammatory agent” (Nissho Corporation, priority 1989, dated 1992)
